Data from PubChem BioAssay AID1918945 (Molecular Pharmacology Branch, DTP, NCI, 2023).

System: 883617-216-R-J1-PDC complex spheroid viability
Experiment: Anticancer human tumor 883617-216-R-J1-PDC patient-derived bladder carcinoma cell line growth inhibition
Settings: for IC50: curve of first compound; for viability, T/C: stronger effect = lower value; active = viability on the fitted dose curve at most 10% of control; inactive = the rest
Text: Multicellular complex tumor spheroid response to LSD1 Inhibitor Iadademstat in combination with a variety of drugs and investigational agents in selected tumor cell lines
The current study was undertaken to assess response to LSD1 inhibitors in combination with standard-of-care drugs and investigational agents in solid tumor complex spheroid models as well as in the K-562 leukemia. Complex spheroids include a stromal component modeled by human endothelial cells (HUVEC) and fibroblasts modeled by human mesenchymal stem cells (MSCs). The concentration ranges selected for each drug and investigational agent were based upon clinically achievable concentrations if the clinical Cmax of the agent was known.
Compounds. The drugs and investigational agents used in this study are listed on Table 1. All of the agents used, including staurosporine (NSC755774) and gemcitabine (NSC613327), were obtained from the Developmental Therapeutics Program, NCI. FDA-approved anticancer drugs are available from the NCI at http://dtp.nci.nih.gov/branches/dscb/oncology_drugset_explanation.html. Drugs and investigational agents were >95% pure by proton nuclear magnetic resonance (NMR) and liquid chromatography/mass spectrometry (LC/MS). Stock solutions were prepared at 400x in DMSO, stored at -70 degrees C, and diluted in fresh medium prior to their use. The final concentration of DMSO in cell culture wells never exceeded 0.25% (v/v). The FDA-approved anticancer drug set is available from the Developmental Therapeutics Program at https://dtp.cancer.gov/organization/dscb/obtaining/available_plates.htm. All drugs and investigational agents were tested over a range starting from a high concentration at or near the clinical Cmax and decreasing in half-log increments. If the clinical Cmax for an agent had not been determined, the highest concentration tested was 10 microM.
Cell Lines. The patient-derived cancer cell (PDC) lines: 292921-168-R-J2-PDC, K24384-001-R-PDC, and 521955-158-R2-J5-PDC pancreatic carcinomas, 556581-035-R-J1 ovarian carcinoma, 324938-238-R-J1-PDC, 855422-203-R-J1-PDC and 883617-216-R-J1-PDC urothelial bladder carcinomas, 743489-274-T-PDC renal cell carcinoma, 138582-R-J1 Merkel cell tumor, K60290-347-R-J1 and K57222-313-R-J1-PDC glioblastomas, 653999-131-R-J2-PDC, LG0703-F948-PDC, and 349418-098-R-PDC non-small cell lung carcinomas, 885512-296-R-J2-PDC, 171881-019-R-J1-PDC breast carcinomas and 186277-243-T-J2-PDC and 233499-124-R-J2-PDC colon carcinomas were obtained from the NCI Patient-Derived Models Repository (PDMR, https://pdmr.cancer.gov). The established cell lines NCI/ADR-RES (RRID:CVCL_14520 and OVCAR-5 (RRID:CVCL_1628) ovarian carcinomas, 786-O (RRID:CVCL_1051) and A498 (RRID:CVCL_A498) renal cell carcinoma, NCI-H211 (ATCC, cat. CRL-5824; RRID:CVCL_1529), NCI-H196 (ATCC, cat. CRL-5823, RRID:CVCL_1509), SW 1271 (ATCC, cat. CRL-2177, RRID:CVCL_1716) and NCI-H1876 (ATCC, cat. CRL-5902, RRID:CVCL_1503) small cell lung carcinomas, MDA-MB-231 (RRID:CVCL_0062) and MDA-MB-468 (RRID:CVCL_0419)breast carcinomas (10-12). Pooled donor human umbilical vein endothelial cells (HUVEC, Lonza, cat. CC-2519) and human mesenchymal stem cells (hMSC, Lonza, cat. PT-2501) were purchased from Lonza (Walkersville, MD).
Cell Culture. All cells were maintained in an incubator at 37 degrees C and 5% CO2 with 95% humidity. The PDC lines were cultured according to standard operating procedures established by the NCI PDMR (https://pdmr.cancer.gov). Briefly all PDCs were thawed and cultured in Matrigel-coated flasks prepared with a working solution of 1X Ham's F-12 nutrient mix, without supplementation (Invitrogen, Waltham, MA, cat. 11765054), 100 U/mL penicillin-streptomycin (Invitrogen, cat. 15140122), and 2.5% Matrigel (Corning Inc., Corning, NY, cat. 354248) for the first three passages. […]

[1] = second compound 0.1 µM, first compound 0.000949 µM
[2] = second compound 0.1 µM, first compound 0.003 µM
[3] = second compound 0.1 µM, first compound 0.00949 µM
[4] = second compound 0.1 µM, first compound 0.03 µM
[5] = second compound 0.1 µM, first compound 0.0949 µM
[6] = second compound 0.1 µM, first compound 0.3 µM
[7] = second compound 0.316 µM, first compound 0.000949 µM
[8] = second compound 0.316 µM, first compound 0.003 µM
[9] = second compound 0.316 µM, first compound 0.00949 µM
[10] = second compound 0.316 µM, first compound 0.03 µM
[11] = second compound 0.316 µM, first compound 0.0949 µM
[12] = second compound 0.316 µM, first compound 0.3 µM
[13] = second compound 1 µM, first compound 0.000949 µM
[14] = second compound 1 µM, first compound 0.003 µM
[15] = second compound 1 µM, first compound 0.00949 µM
[16] = second compound 1 µM, first compound 0.03 µM
[17] = second compound 1 µM, first compound 0.0949 µM
[18] = second compound 1 µM, first compound 0.3 µM
[19] = second compound 3.16 µM, first compound 0.000949 µM
[20] = second compound 3.16 µM, first compound 0.003 µM
[21] = second compound 3.16 µM, first compound 0.00949 µM
[22] = second compound 3.16 µM, first compound 0.03 µM
[23] = second compound 3.16 µM, first compound 0.0949 µM
[24] = second compound 3.16 µM, first compound 0.3 µM
[25] = second compound 10 µM, first compound 0.000949 µM
[26] = second compound 10 µM, first compound 0.003 µM
[27] = second compound 10 µM, first compound 0.00949 µM
[28] = second compound 10 µM, first compound 0.03 µM
[29] = second compound 10 µM, first compound 0.0949 µM
[30] = second compound 10 µM, first compound 0.3 µM
[31] = second compound 0.1 µM, first compound 0.000316 µM
[32] = second compound 0.1 µM, first compound 0.001 µM
[33] = second compound 0.1 µM, first compound 0.00316 µM
[34] = second compound 0.1 µM, first compound 0.01 µM
[35] = second compound 0.1 µM, first compound 0.0316 µM
[36] = second compound 0.1 µM, first compound 0.1 µM
[37] = second compound 0.316 µM, first compound 0.000316 µM
[38] = second compound 0.316 µM, first compound 0.001 µM
[39] = second compound 0.316 µM, first compound 0.00316 µM
[40] = second compound 0.316 µM, first compound 0.01 µM
[41] = second compound 0.316 µM, first compound 0.0316 µM
[42] = second compound 0.316 µM, first compound 0.1 µM
[43] = second compound 1 µM, first compound 0.000316 µM
[44] = second compound 1 µM, first compound 0.001 µM
[45] = second compound 1 µM, first compound 0.00316 µM
[46] = second compound 1 µM, first compound 0.01 µM
[47] = second compound 1 µM, first compound 0.0316 µM
[48] = second compound 1 µM, first compound 0.1 µM
[49] = second compound 3.16 µM, first compound 0.000316 µM
[50] = second compound 3.16 µM, first compound 0.001 µM
[51] = second compound 3.16 µM, first compound 0.00316 µM
[52] = second compound 3.16 µM, first compound 0.01 µM
[53] = second compound 3.16 µM, first compound 0.0316 µM
[54] = second compound 3.16 µM, first compound 0.1 µM
[55] = second compound 10 µM, first compound 0.000316 µM
[56] = second compound 10 µM, first compound 0.001 µM
[57] = second compound 10 µM, first compound 0.00316 µM
[58] = second compound 10 µM, first compound 0.01 µM
[59] = second compound 10 µM, first compound 0.0316 µM
[60] = second compound 10 µM, first compound 0.1 µM
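Also: exposure lasted seven days after three days of spheroid growth.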
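For viability, T/C in this document: 100% = DMSO vehicle control luminescence.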

Nc1ncn(C2CC(O)C(CO)S2)c(=O)n1 (stereo not given) + NC1CCC(NC2CC2c2ccccc2)CC1
> 300 nM: IC50 (second compound 0.1 µM) | IC50 (second compound 0.316 µM) | IC50 (second compound 3.16 µM) | IC50 (second compound 10 µM)
291 nM: IC50 (second compound 1 µM)
inactive: viability, T/C [1] 106% | viability, T/C [2] 111% | viability, T/C [3] 101% | viability, T/C [4] 72.9% | viability, T/C [5] 59.1% | viability, T/C [6] 48.3% | viability, T/C [7] 114% | viability, T/C [8] 110% | viability, T/C [9] 102% | viability, T/C [10] 68.3% | viability, T/C [11] 60.6% | viability, T/C [12] 52.8% | viability, T/C [13] 113% | viability, T/C [14] 106% | viability, T/C [15] 97.1% | viability, T/C [16] 75.4% | viability, T/C [17] 57.5% | viability, T/C [18] 50.1% | viability, T/C [19] 101% | viability, T/C [20] 106% | viability, T/C [21] 86.1% | viability, T/C [22] 72.8% | viability, T/C [23] 61.4% | viability, T/C [24] 53.7% | viability, T/C [25] 110% | viability, T/C [26] 114% | viability, T/C [27] 91.3% | viability, T/C [28] 74.8% | viability, T/C [29] 67.7% | viability, T/C [30] 55.6%

CC(C)CC(NC(=O)C(Cc1ccccc1)NC(=O)c1cnccn1)B(O)O (stereo not given) + NC1CCC(NC2CC2c2ccccc2)CC1
1.76 nM: IC50 (second compound 10 µM)
inactive: viability, T/C [31] 105% | viability, T/C [32] 92.2% | viability, T/C [33] 13.2% | viability, T/C [37] 112% | viability, T/C [38] 91.8% | viability, T/C [43] 108% | viability, T/C [44] 74.6% | viability, T/C [45] 13.2% | viability, T/C [49] 112% | viability, T/C [50] 79.6% | viability, T/C [55] 101% | viability, T/C [56] 92.5%
1.59 nM: IC50 (second compound 1 µM)
1.62 nM: IC50 (second compound 3.16 µM)
1.79 nM: IC50 (second compound 0.316 µM)
1.85 nM: IC50 (second compound 0.1 µM)
active: viability, T/C [34] 3.29% | viability, T/C [35] 2.15% | viability, T/C [36] 0.25% | viability, T/C [39] 8.98% | viability, T/C [40] 1.9% | viability, T/C [41] 0.32% | viability, T/C [42] 0.82% | viability, T/C [46] 1.21% | viability, T/C [47] 0.94% | viability, T/C [48] 0.72% | viability, T/C [51] 9.32% | viability, T/C [52] 1.86% | viability, T/C [53] 1.46% | viability, T/C [54] 0.83% | viability, T/C [57] 6.31% | viability, T/C [58] 0.91% | viability, T/C [59] 0.79% | viability, T/C [60] 0.32%

Cn1ncnc1C1c2n[nH]c(=O)c3cc(F)cc(c23)NC1c1ccc(F)cc1 (stereo not given) + NC1CC1c1ccc(-c2cccc(O)c2)cc1
6.41 nM: IC50 (second compound 10 µM)
15.1 nM: IC50 (second compound 0.1 µM)
8.5 nM: IC50 (second compound 3.16 µM)
12.4 nM: IC50 (second compound 1 µM)
inactive: viability, T/C [31] 105% | viability, T/C [32] 95.4% | viability, T/C [33] 76.4% | viability, T/C [34] 53% | viability, T/C [35] 44.1% | viability, T/C [36] 37.8% | viability, T/C [37] 116% | viability, T/C [38] 103% | viability, T/C [39] 73% | viability, T/C [40] 54.3% | viability, T/C [41] 47.1% | viability, T/C [42] 40.8% | viability, T/C [43] 118% | viability, T/C [44] 88.9% | viability, T/C [45] 68.6% | viability, T/C [46] 50.2% | viability, T/C [47] 43% | viability, T/C [48] 37.8% | viability, T/C [49] 92.4% | viability, T/C [50] 93% | viability, T/C [51] 62.6% | viability, T/C [52] 50.4% | viability, T/C [53] 42.2% | viability, T/C [54] 33.9% | viability, T/C [55] 83.5% | viability, T/C [56] 64.2% | viability, T/C [57] 58.1% | viability, T/C [58] 44.9% | viability, T/C [59] 40.9% | viability, T/C [60] 32.3%
16.2 nM: IC50 (second compound 0.316 µM)

Nc1ccn(C2OC(CO)C(O)C2(F)F)c(=O)n1 (stereo not given) + NC1CCC(NC2CC2c2ccccc2)CC1
< 0.949 nM: IC50 (second compound 0.1 µM) | IC50 (second compound 0.316 µM) | IC50 (second compound 1 µM) | IC50 (second compound 3.16 µM) | IC50 (second compound 10 µM)
inactive: viability, T/C [1] 28.7% | viability, T/C [2] 20.4% | viability, T/C [3] 24.2% | viability, T/C [4] 26.4% | viability, T/C [5] 25.9% | viability, T/C [6] 18.2% | viability, T/C [7] 24.9% | viability, T/C [8] 17.3% | viability, T/C [9] 23.6% | viability, T/C [10] 22.4% | viability, T/C [11] 23.4% | viability, T/C [12] 23.6% | viability, T/C [13] 28.2% | viability, T/C [14] 19.7% | viability, T/C [15] 24.1% | viability, T/C [16] 22.6% | viability, T/C [17] 22% | viability, T/C [18] 21.7% | viability, T/C [19] 24.7% | viability, T/C [20] 21.7% | viability, T/C [21] 22.3% | viability, T/C [22] 21.6% | viability, T/C [23] 22.7% | viability, T/C [24] 19.2% | viability, T/C [25] 30.5% | viability, T/C [26] 20.6% | viability, T/C [27] 26.9% | viability, T/C [28] 23.6% | viability, T/C [29] 23% | viability, T/C [30] 19.2%
